Test results: ChEMBL document CHEMBL4840367, “2-Phenylcyclopropylmethylamine Derivatives as Dopamine D2 Receptor Partial Agonists: Design, Synthesis, and Biological Evaluation” (J Med Chem, 2021)
“And” between values parts separate entries of the source, which are not always exact repeats. Equal values may be shown once.

Experiments:
[1] = in vitro; details: human, liver microsomes
Description: Metabolic stability in human liver microsomes assessed as half life preincubated for 5 mins followed by NADPH addition measured after 10 mins by LC-MS analysis

[2] = in vitro; details: mouse, liver microsomes
Description: Metabolic stability in mouse liver microsomes assessed as half life preincubated for 5 mins followed by NADPH addition measured after 10 mins by LC-MS analysis

[3] = biological target: T1, D(2) dopamine receptor (Homo sapiens, UniProt P14416); format: cell membranes, HEK293T, Membrane
[4] = biological target: T1, D(2) dopamine receptor
[5] = biological target: T1, D(2) dopamine receptor; remark: listed apart in the source
[6] = biological target: T2, 5-hydroxytryptamine receptor 2C (Homo sapiens, UniProt P28335)
T2 sequence (P28335 whole entry): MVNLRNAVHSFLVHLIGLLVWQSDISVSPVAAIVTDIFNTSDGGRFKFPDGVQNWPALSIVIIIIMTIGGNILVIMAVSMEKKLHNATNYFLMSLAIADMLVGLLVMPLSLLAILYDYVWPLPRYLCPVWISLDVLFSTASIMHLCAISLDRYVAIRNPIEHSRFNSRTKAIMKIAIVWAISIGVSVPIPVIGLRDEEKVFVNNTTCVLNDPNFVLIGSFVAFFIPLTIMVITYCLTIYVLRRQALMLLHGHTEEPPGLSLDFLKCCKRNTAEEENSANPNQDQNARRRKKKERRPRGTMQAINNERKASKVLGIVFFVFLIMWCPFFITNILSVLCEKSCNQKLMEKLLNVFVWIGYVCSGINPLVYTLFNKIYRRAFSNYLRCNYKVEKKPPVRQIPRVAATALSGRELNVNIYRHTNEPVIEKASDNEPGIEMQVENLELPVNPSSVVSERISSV

[7] = biological target: 5-hydroxytryptamine receptor 2A (Homo sapiens, UniProt P28223); format: cell membranes, HEK293T, Membrane
[8] = biological target: T3, D(4) dopamine receptor (Homo sapiens, UniProt P21917)
T3 sequence (P21917 whole entry): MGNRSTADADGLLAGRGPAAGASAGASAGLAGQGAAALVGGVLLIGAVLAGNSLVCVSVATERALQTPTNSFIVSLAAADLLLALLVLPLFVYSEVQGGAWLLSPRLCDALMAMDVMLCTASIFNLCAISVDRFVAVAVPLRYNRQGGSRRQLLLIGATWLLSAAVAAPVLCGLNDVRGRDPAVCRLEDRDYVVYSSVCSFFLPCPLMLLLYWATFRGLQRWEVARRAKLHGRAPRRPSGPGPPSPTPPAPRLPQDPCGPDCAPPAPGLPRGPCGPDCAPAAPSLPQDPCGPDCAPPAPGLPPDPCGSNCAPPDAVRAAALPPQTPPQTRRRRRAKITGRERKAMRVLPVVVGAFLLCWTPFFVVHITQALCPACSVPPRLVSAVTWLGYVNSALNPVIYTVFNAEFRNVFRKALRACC

[9] = biological target: D(1A) dopamine receptor (Homo sapiens, UniProt P21728)
Chain of D(1A) dopamine receptor (P21728 whole entry): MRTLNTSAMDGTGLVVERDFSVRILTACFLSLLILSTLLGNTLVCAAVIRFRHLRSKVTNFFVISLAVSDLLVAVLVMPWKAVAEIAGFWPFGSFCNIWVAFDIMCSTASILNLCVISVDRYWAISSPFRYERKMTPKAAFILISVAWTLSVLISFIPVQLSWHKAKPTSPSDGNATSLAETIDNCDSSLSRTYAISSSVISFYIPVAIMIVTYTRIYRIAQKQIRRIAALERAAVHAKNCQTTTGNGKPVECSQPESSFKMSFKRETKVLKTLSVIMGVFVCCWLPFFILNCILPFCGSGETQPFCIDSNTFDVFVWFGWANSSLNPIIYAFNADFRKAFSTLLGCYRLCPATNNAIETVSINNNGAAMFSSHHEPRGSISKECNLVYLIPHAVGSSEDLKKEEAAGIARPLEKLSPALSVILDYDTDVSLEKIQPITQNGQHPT

Chain of 5-hydroxytryptamine receptor 2A (P28223 whole entry): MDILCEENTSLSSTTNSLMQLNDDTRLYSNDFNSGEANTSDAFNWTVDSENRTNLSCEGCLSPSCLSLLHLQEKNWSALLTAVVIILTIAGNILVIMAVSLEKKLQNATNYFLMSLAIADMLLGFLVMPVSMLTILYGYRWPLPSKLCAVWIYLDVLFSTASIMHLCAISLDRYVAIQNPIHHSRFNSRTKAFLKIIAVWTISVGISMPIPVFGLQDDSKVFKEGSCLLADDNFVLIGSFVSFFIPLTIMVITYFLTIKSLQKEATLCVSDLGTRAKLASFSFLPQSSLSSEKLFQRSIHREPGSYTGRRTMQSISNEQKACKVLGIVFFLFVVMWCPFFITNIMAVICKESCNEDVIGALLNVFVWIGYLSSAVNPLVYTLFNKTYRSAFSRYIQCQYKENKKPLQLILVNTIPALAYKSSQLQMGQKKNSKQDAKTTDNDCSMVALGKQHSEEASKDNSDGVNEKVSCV
T1 sequence (P14416 whole entry): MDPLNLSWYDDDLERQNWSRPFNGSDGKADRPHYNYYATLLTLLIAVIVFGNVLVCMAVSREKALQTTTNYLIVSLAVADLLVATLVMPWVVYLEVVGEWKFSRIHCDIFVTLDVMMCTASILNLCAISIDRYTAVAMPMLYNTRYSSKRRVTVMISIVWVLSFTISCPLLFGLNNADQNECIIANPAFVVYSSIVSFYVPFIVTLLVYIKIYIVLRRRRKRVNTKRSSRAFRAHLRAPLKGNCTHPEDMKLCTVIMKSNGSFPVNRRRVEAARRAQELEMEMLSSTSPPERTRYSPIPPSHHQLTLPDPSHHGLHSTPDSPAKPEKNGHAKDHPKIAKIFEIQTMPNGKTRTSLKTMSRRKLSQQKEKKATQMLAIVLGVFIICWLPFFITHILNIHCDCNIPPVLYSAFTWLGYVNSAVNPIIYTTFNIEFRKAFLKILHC

Compound	Ki [3] [nM]	EC50 [4]	EC50 [5] [nM]	further results
CN(C)C(=O)N[C@H]1CC[C@H](CCN2CCN(c3cccc(Cl)c3Cl)CC2)CC1 [CARIPRAZINE]				half-life at 10 min [1]: 32.7 min; half-life at 10 min [2]: 22.3 min
CN(C)C(=O)N[C@H]1CC[C@H](CCNCC2CC2c2cccc(Cl)c2Cl)CC1 (stereo not given in full)	1330			
COc1ccc(Cl)cc1[C@H]1C[C@@H]1CNCCCCOc1ccc2c(c1)NC(=O)CC2				Ki [6]: 373 nM; Ki [7]: 2090 nM; Ki [8]: 373 nM; Ki [9]: > 10000 nM
COc1ccccc1C1CC1CNCC[C@H]1CC[C@H](NC(=O)N2CCCC2)CC1 (stereo not given in full)	2190			
O=c1ccc2ccc(OCCCCNCC3CC3c3cccc4c3OCCO4)cc2[nH]1 (stereo not given)	178	23.4 nM	26.3	
COc1ccc(Cl)cc1[C@H]1C[C@@H]1CNCCCOc1ccc2ccc(=O)[nH]c2c1				Ki [6]: 604 nM; Ki [7]: 1160 nM; Ki [8]: 604 nM; Ki [9]: > 10000 nM
CN(C)C(=O)N[C@H]1CC[C@H](CCNCC2CC2c2cccc3c2OCCO3)CC1 (stereo not given in full)	2310			
COc1ccc(F)cc1[C@H]1C[C@@H]1CNCCCOc1ccc2ccc(=O)[nH]c2c1				Ki [6]: 305 nM; Ki [7]: 520 nM; Ki [8]: 305 nM; Ki [9]: > 10000 nM
CN1CCc2ccccc2Cc2[nH]c3ccccc3c2CC1				Ki [9]: 2.93 nM
COc1ccccc1C1CC1CNCC[C@H]1CC[C@H](NC(=O)N(C)C)CC1 (stereo not given in full)	1820			
COc1ccc(F)cc1[C@H]1C[C@@H]1CNCCCCOc1ccc2ccc(=O)[nH]c2c1				Ki [6]: 122 nM; Ki [7]: 1410 nM; Ki [8]: 122 nM; Ki [9]: > 10000 nM

The next lines start with results.

Ki [3] [nM]	EC50 [4]	EC50 [5] [nM]	Compound	further results
126	10 nM	9.3	COc1ccccc1C1CC1CNCCCOc1ccc2c(c1)NC(=O)CC2 (stereo not given)	
322			CN(CCCCOc1ccc2c(c1)NC(=O)CC2)CC1CC1c1cccc(Cl)c1Cl (stereo not given)	
259	417 nM	891	COc1ccccc1C1CC1CNCCCCCOc1ccc2c(c1)NC(=O)CC2 (stereo not given)	
366	35.7 nM	18.9	CSc1ccccc1C1CC1CNCCCCOc1ccc2c(c1)NC(=O)CC2 (stereo not given)	
454	61.3 nM and 60.3 nM	22.9	COc1ccccc1C1CC1CNC/C=C/COc1ccc2c(c1)NC(=O)CC2 (stereo not given)	
0.51	16.1 nM	10.2	O=c1ccc2ccc(OCCCCN3CCN(c4cccc5sccc45)CC3)cc2[nH]1 [BREXPIPRAZOLE]	half-life at 10 min [1]: 27.2 min; half-life at 10 min [2]: 17.2 min
1040			COc1ccccc1C1CC1CNCC[C@H]1CC[C@H](NC(=O)c2ccccc2)CC1 (stereo not given in full)	
384	61.7 nM	95.5	O=C1CCc2ccc(OCCCCNCC3CC3c3cccc4c3OCCO4)cc2N1 (stereo not given)	
27.4	14.9 nM	3.47	COc1ccc(F)cc1C1CC1CNCCCOc1ccc2c(c1)NC(=O)CC2 (stereo not given)	
156	7.08 nM	11.2	COc1ccccc1C1CC1CNCCCOc1ccc2ccc(=O)[nH]c2c1 (stereo not given)	
59.9	32.4 nM	26.3	COc1ccccc1C1CC1CNCCCCOc1ccc2ccc(=O)[nH]c2c1 (stereo not given)	
95.2	7.43 nM	2.88	CSc1ccccc1C1CC1CNCCCCOc1ccc2ccc(=O)[nH]c2c1 (stereo not given)	
